Measurements reported in paper PMC7044277 (Nature Communications, 2020).
Several values for one entry are separate records, joined by “and”; a condition that tells them apart may be missing. Equal entries are not always repeated.

Assays:
Format in all cases: cell-based
[1] = biological target: T1, DRD2 S1935.42G (Homo sapiens, UniProt P14416, S193G); test: Gαi/o-mediated cAMP inhibition (GloSensor), mutant; conditions: DRD2 Ser5.42Gly; G-protein assay
T1 construct: expressed in transfected cells; host or cells: HEK293T (ATCC CRL-11268)

[2] = biological target: T2, 5HT7A (Homo sapiens, UniProt P34969); test: β-arrestin2 recruitment (Tango); conditions: for β-arrestin2 recruitment response, replicate points of concentration-response curve: Fig_S10q, agonist mode
T2 construct: expressed in transfected cells; host or cells: HTLA cells expressing TEV-fused β-arrestin2

[3] = biological target: 5HT1D (Homo sapiens, UniProt P28221); test: β-arrestin2 recruitment (Tango); conditions: agonist activity only at high concentrations
[4] = biological target: T3, DRD2 S1945.43G (Homo sapiens, UniProt P14416, S194G); test: Gαi/o-mediated cAMP inhibition (GloSensor), mutant; conditions: DRD2 Ser5.43Gly; G-protein assay
T3 construct: expressed in transfected cells; host or cells: HEK293T (ATCC CRL-11268)

[5] = biological target: DRD1 (Homo sapiens, UniProt P21728); test: β-arrestin2 recruitment (Tango); conditions: agonist mode
[6] = biological target: T4, DRD2 S1975.46G (Homo sapiens, UniProt P14416, S197G); test: Gαi/o-mediated cAMP inhibition (GloSensor), mutant; conditions: DRD2 Ser197^5.46Gly; G-protein assay
T4 construct: expressed in transfected cells; host or cells: HEK293T (ATCC CRL-11268)
T4 sequence (P14416 whole entry S197G): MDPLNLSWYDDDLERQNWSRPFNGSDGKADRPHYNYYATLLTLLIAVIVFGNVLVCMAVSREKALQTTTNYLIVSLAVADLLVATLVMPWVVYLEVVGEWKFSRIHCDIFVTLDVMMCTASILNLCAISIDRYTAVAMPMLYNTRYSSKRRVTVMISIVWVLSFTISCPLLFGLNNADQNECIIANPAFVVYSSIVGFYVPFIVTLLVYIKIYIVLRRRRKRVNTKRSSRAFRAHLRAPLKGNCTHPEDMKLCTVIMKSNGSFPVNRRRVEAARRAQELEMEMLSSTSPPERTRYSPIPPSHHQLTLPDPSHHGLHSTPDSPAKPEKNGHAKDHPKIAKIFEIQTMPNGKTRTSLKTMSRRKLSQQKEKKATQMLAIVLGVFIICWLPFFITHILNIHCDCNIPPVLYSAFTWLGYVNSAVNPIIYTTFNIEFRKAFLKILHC

T2 sequence (P34969 1-445 isoform P34969-2): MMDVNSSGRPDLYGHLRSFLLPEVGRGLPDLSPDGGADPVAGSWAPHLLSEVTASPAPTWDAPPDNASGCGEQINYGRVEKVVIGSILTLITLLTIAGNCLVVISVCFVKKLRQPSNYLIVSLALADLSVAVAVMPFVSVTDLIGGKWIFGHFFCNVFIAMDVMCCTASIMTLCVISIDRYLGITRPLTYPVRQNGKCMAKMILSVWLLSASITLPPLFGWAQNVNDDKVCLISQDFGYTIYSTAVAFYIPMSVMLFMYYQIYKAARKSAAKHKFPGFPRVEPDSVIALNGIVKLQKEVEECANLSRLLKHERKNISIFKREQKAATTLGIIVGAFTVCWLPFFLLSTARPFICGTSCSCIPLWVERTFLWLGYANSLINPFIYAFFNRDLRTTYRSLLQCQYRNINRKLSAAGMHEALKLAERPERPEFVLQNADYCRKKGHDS
Sequence of DRD1 (P21728 whole entry): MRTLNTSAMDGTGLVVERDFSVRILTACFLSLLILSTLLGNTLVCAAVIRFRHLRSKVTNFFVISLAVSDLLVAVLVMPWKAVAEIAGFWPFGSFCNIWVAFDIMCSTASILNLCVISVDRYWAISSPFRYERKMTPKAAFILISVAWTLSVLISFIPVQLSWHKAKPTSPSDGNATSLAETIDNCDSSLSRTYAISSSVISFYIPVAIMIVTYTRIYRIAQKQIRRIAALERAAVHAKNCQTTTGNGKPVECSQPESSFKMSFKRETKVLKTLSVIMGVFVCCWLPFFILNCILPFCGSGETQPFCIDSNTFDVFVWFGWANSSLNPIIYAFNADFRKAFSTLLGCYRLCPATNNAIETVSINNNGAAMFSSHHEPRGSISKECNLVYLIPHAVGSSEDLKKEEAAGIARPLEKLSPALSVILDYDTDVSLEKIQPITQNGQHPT
Sequence of 5HT1D (P28221 whole entry): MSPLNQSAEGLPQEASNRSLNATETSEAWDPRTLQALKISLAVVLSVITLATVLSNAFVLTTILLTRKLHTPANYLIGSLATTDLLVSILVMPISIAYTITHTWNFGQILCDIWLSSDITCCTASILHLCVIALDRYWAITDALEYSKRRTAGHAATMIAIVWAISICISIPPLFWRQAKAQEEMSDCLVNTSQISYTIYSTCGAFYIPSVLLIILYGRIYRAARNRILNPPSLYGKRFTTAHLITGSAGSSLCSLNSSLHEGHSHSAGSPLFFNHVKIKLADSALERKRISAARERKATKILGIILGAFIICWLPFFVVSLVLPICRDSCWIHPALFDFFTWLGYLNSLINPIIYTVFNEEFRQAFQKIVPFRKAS
T1 sequence (P14416 whole entry S193G): as the sequence (P14416 whole entry S197G) above, with S193G, G197S counted along it
T3 sequence (P14416 whole entry S194G): as the sequence (P14416 whole entry S197G) above, with S194G, G197S counted along it

Q: Which “agonism after serine to glycine substitution” value (“agonism after serine” for short) [1] does the source give for `CCOc1cccc2cc([C@@H](C)NCC3(O)CCCCC3)oc12` [O4RE6] here?
A: impaired

Q: And the “concentration at which the receptor is activated” value ([2]; 5HT7A, agonist activity only at high concentrations)?
A: over 1 μM

Q: What about the “β-arrestin2 recruitment response, replicate points of concentration-response curve” value (“β-arrestin2 recruitment response” for short) ([2]; Log[Drug] -8.52) of the same molecule?
A: -12.5786 and -8.044 and 1.071 and -9.7421 and 32.4405 and 49.1467 and -14.2149 and 16.5223 and -11.2331 and 4.354 and 35.2448 and 10.2419

Q: And the “β-arrestin2 recruitment response” value ([2]; Log[Drug] -9)?
A: 10.8788 and 4.459 and -14.1005 and -17.9842 and -16.1246 and -21.1449 and -7.127 and 62.1289 and 35.3983 and -32.9912 and 26.9263 and -33.8761

Q: And the “β-arrestin2 recruitment response” value ([2]; Log[Drug] -9.52)?
A: -17.7926 and -13.0806 and -8.59 and 76.7429 and -5.732 and -9.941 and -9.587 and 8.198 and -49.3687 and 45.8761

Q: And the “β-arrestin2 recruitment response” value ([2]; Log[Drug] -10)?
A: 8.776 and -5.649 and -4.779 and -6.75 and 22.3693 and -13.4231 and 66.8562 and 10.9818 and 67.3785 and -0.5782 and 14.0649 and -7.044

Q: What about the “β-arrestin2 recruitment response” value ([2]; Log[Drug] -10.52) of the same molecule?
A: 3.024 and -18.69 and -0.8855 and -5.258 and -47.1876 and -14.9154 and -10.2215 and 7.524 and 59.795 and 14.1475 and 8.932 and -11.705

Q: And the “β-arrestin2 recruitment response” value ([2]; Log[Drug] -11)?
A: 2.617 and -4.127 and -1.973 and 44.555 and 24.1984 and -23.678 and 55.762 and 41.0711 and -15.762 and -13.3333 and -38.2183 and -14.0059

Q: What about the “β-arrestin2 recruitment response” value ([2]; Log[Drug] -11.52) of the same molecule?
A: 10.0328 and 5.163 and -15.1797 and -41.8076 and 36.1292 and 53.417 and 13.0909 and -3.233 and 13.8777 and 47.469 and -14.7611 and -41.4631

Q: And the “β-arrestin2 recruitment response” value ([2]; Log[Drug] -12)?
A: -10.6692 and 6.787 and -7.578 and 7.025 and -23.6244 and 50.44 and -4.476 and 12.3769 and -7.901 and 14.5015 and 35.0914 and -7.516

Q: What about the “concentration at which the receptor is activated” value [3] of the same molecule?
A: over 1 μM

Q: And the “agonism after serine” value [4]?
A: impaired

Q: And the “Fig_S10d concentration-response source data, compound alone (replicates)” value ([5]; Log[Drug] -6.52)?
A: 1.905

Q: What about the “Fig_S10d concentration-response source data, compound alone (replicates)” value ([5]; Log[Drug] -7) of the same molecule?
A: 1.064 and 2.282 and -0.6391 and 0.289 and -0.08278 and 0.4865 and -0.4054 and 1.577 and 0.01217

Q: What about the “Fig_S10d concentration-response source data, compound alone (replicates)” value ([5]; Log[Drug] -7.52) of the same molecule?
A: 1.077 and 0.9051 and -0.1158 and 0.04295 and -0.04452 and 0.1062 and 0.53 and 4.578 and 0.07397

Q: What about the “Fig_S10d concentration-response source data, compound alone (replicates)” value ([5]; Log[Drug] -8) of the same molecule?
A: 0.3903 and 0.04289 and 0.7249 and 0.1109 and 0.1132 and -0.0164 and 0.2378 and 0.7481 and 0.5777

Q: What about the “Fig_S10d concentration-response source data, compound alone (replicates)” value ([5]; Log[Drug] -8.52) of the same molecule?
A: 1.047 and 2.106 and 1.068 and 0.04686 and -0.2007 and -0.1148 and -0.01592 and 0.004682 and 0.05431

Q: What about the “Fig_S10d concentration-response source data, compound alone (replicates)” value ([5]; Log[Drug] -9) of the same molecule?
A: 0.3903 and 1.591 and 1.077 and 0.9231 and 0.04452 and 0.3311 and -0.4785 and 2.978 and 0.1554

Q: What about the “Fig_S10d concentration-response source data, compound alone (replicates)” value ([5]; Log[Drug] -9.52) of the same molecule?
A: 0.3689 and -0.1244 and 0.7292 and 0.2936 and 0.3303 and 0.01406 and 0.5824 and 0.412 and 0.617

Q: What about the “Fig_S10d concentration-response source data, compound alone (replicates)” value ([5]; Log[Drug] -10) of the same molecule?
A: 7.429 and 0.8836 and 0.03432 and 0.6724 and -0.1109 and 0.4569 and -0.09176 and 0.9157 and -0.1386

Q: What about the “Fig_S10d concentration-response source data, compound alone (replicates)” value ([5]; Log[Drug] -10.52) of the same molecule?
A: -0.3217 and 1.253 and 1.072 and 0.2647 and -0.2624 and -0.04452 and -0.9541 and 0.426 and 0.1283

Q: And the “Fig_S10d concentration-response source data, compound alone (replicates)” value ([5]; Log[Drug] -11)?
A: 0.05147 and 1.072 and 2.964 and 0.7974 and -0.07497 and -0.2936 and -0.2444 and 1.441 and -0.4363

Q: And the “Fig_S10d concentration-response source data, compound alone (replicates)” value ([5]; Log[Drug] -11.52)?
A: 1.244 and 0.2102 and -0.6649 and -0.01562 and -0.1695 and 0.02187 and -0.1648 and 0.6545 and -0.5449

Q: What about the “Fig_S10d concentration-response source data, compound alone (replicates)” value ([5]; Log[Drug] -12) of the same molecule?
A: 0.04289 and 4.504 and 6.396 and -0.1351 and 0.3358 and -0.1991 and -0.1554 and -0.2734 and -0.1919

Q: What about the “agonism after serine” value [6] of the same molecule?
A: impaired
